Where two headings read alike, the source gives them in different places. Numbered stars: 1 amine (or outer) side, 2 acyl side, 3 side chain; on linkers, the order of the positions; unused ones are H or OH. Square brackets hold non-standard residues; d marks the D form. Side chains are listed from the residue outwards. Peptide text beside a SMILES is read from it. * marks the point of attachment. C18 diacid = O=C(O)CCCCCCCCCCCCCCCCC(=O)*; γGlu = O=C(O)[C@H](CCC(=O)[*:2])N[*:1]; εLys = N[C@@H](CCCCN[*:1])C(=O)[*:2]; AEEA = NCCOCCOCC(=O)O; Aib = CC(C)(N)C(=O)O
Legend:
human GLP-1 receptor = target: T1, human GLP-1 receptor (Homo sapiens, UniProt P43220); assay: In vitro potency (AlphaScreen cAMP, membranes); type: biochemical
T1 construct: expressed in transfected cells; host or cells: BHK cells, clone FCW467-12A/KZ10-1 (parent line BHKTS13), further transfected with CRE luciferase
Method: The purpose of this example is to test the activity, or potency, of the GLP-1 derivatives in vitro.
Purified plasma membranes from a stable transfected cell line, BHK467-12A (tk-ts13), expressing the human GLP-1 receptor were stimulated with the GLP-1 analogue or derivative in question, and the potency of cAMP production was measured using the AlphaScreen™ cAMP Assay Kit from Perkin Elmer Life Sciences. The basic principle of the AlphaScreen Assay is a competition between endogenous cAMP and exogenously added biotin-cAMP. The capture of cAMP is achieved by using a specific antibody conjugated to acceptor beads.
A stable transfected cell line and a high expressing clone were selected for screening. The cells were grown at 5% CO2 in DMEM, 5% FCS, 1% Pen/Strep (Penicillin/Streptomycin) and 0.5 mg/ml of the selection marker G418.
Cells at approximately 80% confluence were washed 2× with PBS and harvested with Versene (aqueous solution of the tetrasodium salt of ethylenediaminetetraacetic acid), centrifuged 5 min at 1000 rpm and the supernatant removed. The additional steps were all performed on ice. The cell pellet was homogenised by the Ultrathurax for 20-30 s in 10 ml of Buffer 1 (20 mM Na-HEPES, 10 mM EDTA, pH=7.4), centrifuged 15 min at 20,000 rpm and the pellet resuspended in 10 ml of Buffer 2 (20 mM Na-HEPES, 0.1 mM EDTA, pH=7.4). The suspension was homogenised for 20-30 s and centrifuged 15 min at 20,000 rpm. Suspension in Buffer 2, homogenisation and centrifugation was repeated once and the membranes were resuspended in Buffer 2. The protein concentration was determined and the membranes stored at −80° C. until use.
The assay was performed in flat-bottom 96-well plates (Costar cat. no:3693). The final volume per well was 50 μl.
AlphaScreen cAMP Assay Kit from Perkin Elmer Life Sciences (cat. No: 6760625M); containing Anti-cAMP Acceptor beads (10 U/μl), Streptavidin Donor beads (10 U/μl) and Biotinylated-cAMP (133 U/μl).
AlphaScreen Buffer, pH=7.4: 50 mM TRIS-HCl (Sigma, cat.no: T3253); 5 mM HEPES (Sigma, cat.no: H3375); 10 mM MgCl2, 6H2O (Merck, cat.no: 5833); 150 mM NaCl (Sigma, cat.no: S9625); 0.01% Tween (Merck, cat.no: 822184). The following was added to the AlphaScreen Buffer prior to use (final concentrations indicated): BSA (Sigma, cat. no. A7906): 0.1%; IBMX (Sigma, cat. no. 15879): 0.5 mM; ATP (Sigma, cat. no. A7699): 1 mM; GTP (Sigma, cat. no. G8877): 1 uM.
cAMP standard (dilution factor in assay=5): cAMP Solution: 5 μL of a 5 mM cAMP-stock+495 μL AlphaScreen Buffer.
Membranes were prepared from hGLP-1/BHK 467-12A cells with a concentration of 6 μg/well corresponding to 0.6 mg/ml (the amount of membranes used pr. well may vary)
“No membranes”: Acceptor Beads (15 μg/ml final) in AlphaScreen buffer
“6 μg/well membranes”: membranes+Acceptor Beads (15 μg/ml final) in AlphaScreen buffer
An aliquot (10 μl) of “No membranes” was added to the cAMP standard (per well in duplicate wells) and the positive and negative controls
An aliquot (10 μl) of “6 μg/well membranes” was added to GLP-1 and analogues (per well in duplicate or triplicate wells)
Pos. Control: 10 μl “no membranes”+10 μl AlphaScreen Buffer
Neg. Control: 10 μl “no membranes”+10 μl cAMP Stock Solution (50 μM)
As the beads are sensitive to direct light, any handling was in the dark (as dark as possible), or in green light. All dilutions were made on ice.
1. Make the AlphaScreen Buffer.
2. Dissolve and dilute the GLP-1/Analogues/cAMP standard in AlphaScreen Buffer.
3. Make the Donor Beads Solution by mixing streptavidin donor beads (2 units/well) and biotinylated cAMP (1.2 units/well) and incubate 20-30 min in the dark at room temperature
4. Add the cAMP/GLP-1/Analogues to the plate: 10 μl per well.
5. Prepare membrane/Acceptor Beads solution and add this to the plates: 10 μl per well.
6. Add the Donor Beads: 30 μl per well.
7. Wrap the plate in aluminum foil and incubate on the shaker for 3 hours (very slowly) at RT.

[1] = Pharmacokinetic (PK) study in rat; conditions: male, Sprague Dawley, in vivo, iv, 6 nmol/kg
Method: The purpose of this Example is to investigate half-life in vivo in rat.
In vivo pharmacokinetic studies in rats were performed with the GLP-1 derivatives of a number of the Example compounds, as described in the following.
Male Sprague Dawley rats of same age with a body weight of approximately 400 g were obtained from Taconic (Denmark) and assigned to the treatments by simple randomisation on body weight, approximately 4 rats per group.
The GLP-1 derivatives (approximately 6 nmol/ml) were dissolved in 50 mM sodium phosphate, 145 mM sodium chloride, 0.05% tween 80, pH 7.4. Intravenous injections (1.0 ml/kg) of the compounds were given with a syringe in the tail vein of conscious rats. Blood was sampled from vena sublingualis for 5 days post dosing. Blood samples (200 μl) were collected in EDTA buffer (8 mM) and then centrifuged at 4° C. and 10000 G for 5 minutes. Plasma samples were kept at −20° C. until analyzed for plasma concentration of the respective GLP-1 compound.
The donor beads were coated with streptavidin, while acceptor beads were conjugated with a monoclonal antibody recognising a mid-/C-terminal epitope of the peptide. Another monoclonal antibody, specific for the N-terminus, was biotinylated. The three reactants were combined with the analyte and formed a two-sited immuno-complex. Illumination of the complex released singlet oxygen atoms from the donor beads, which were channeled into the acceptor beads and triggered chemiluminescence which was measured in an Envision plate reader. The amount of light was proportional to the concentration of the compound.
Plasma concentration-time profiles were analyzed using Phoenix WinNonLin ver. 6.2, Pharsight Inc., Mountain View, Calif., USA), and the half-life (T1/2) calculated using individual plasma concentration-time profiles from each animal.

[2] = cAMP formation in membranes from BHK467-12A cells expressing human GLP-1 receptor, read-out: In vitro potency (AlphaScreen) EC50

T1 sequence (P43220 24-463): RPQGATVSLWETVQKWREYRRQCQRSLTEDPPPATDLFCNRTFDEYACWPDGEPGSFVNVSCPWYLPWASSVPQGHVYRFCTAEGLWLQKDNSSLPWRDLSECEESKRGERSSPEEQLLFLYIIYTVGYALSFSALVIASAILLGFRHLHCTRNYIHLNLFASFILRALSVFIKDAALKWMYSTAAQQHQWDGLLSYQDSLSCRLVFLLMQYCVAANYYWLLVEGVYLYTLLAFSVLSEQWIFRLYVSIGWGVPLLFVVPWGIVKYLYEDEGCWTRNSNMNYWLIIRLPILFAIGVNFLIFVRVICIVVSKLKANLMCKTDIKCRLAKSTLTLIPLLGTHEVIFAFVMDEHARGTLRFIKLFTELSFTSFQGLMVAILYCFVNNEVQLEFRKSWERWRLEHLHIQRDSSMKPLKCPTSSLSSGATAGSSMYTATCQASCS

EC50 (human GLP-1 receptor; [2]) [nM]	Structure (SMILES)	EC50 (human GLP-1 receptor) [nM]	half-life [1] [h]
–	CC[C@H](C)[C@H](NC(=O)[C@H](Cc1ccccc1)NC(=O)[C@H](CCC(=O)O)NC(=O)[C@H](CCCCNC(=O)[C@@H](N)CCCCNC(=O)[C@@H](N)CCCCNC(=O)CC[C@H](NC(=O)CCCCCCCCCOc1ccc(C(=O)O)cc1)C(=O)O)NC(=O)[C@H](C)NC(=O)[C@H](C)NC(=O)[C@H](CCC(N)=O)NC(=O)CNC(=O)[C@H](CCC(=O)O)NC(=O)[C@H](CC(C)C)NC(=O)[C@H](Cc1ccc(O)cc1)NC(=O)[C@H](CO)NC(=O)[C@H](CO)NC(=O)[C@@H](NC(=O)[C@H](CC(=O)O)NC(=O)[C@H](CO)NC(=O)[C@@H](NC(=O)[C@H](Cc1ccccc1)NC(=O)[C@@H](NC(=O)CNC(=O)[C@H](CCC(=O)O)NC(=O)C(C)(C)NC(=O)[C@@H](N)Cc1c[nH]cn1)[C@@H](C)O)[C@@H](C)O)C(C)C)C(=O)N[C@@H](C)C(=O)N[C@@H](Cc1c[nH]c2ccccc12)C(=O)N[C@@H](CC(C)C)C(=O)N[C@H](C(=O)N[C@@H](CCCNC(=N)N)C(=O)NCC(=O)N[C@@H](CCCNC(=N)N)C(=O)N[C@@H](CCCCNC(=O)[C@@H](N)CCCCNC(=O)[C@@H](N)CCCCNC(=O)CC[C@H](NC(=O)CCCCCCCCCOc1ccc(C(=O)O)cc1)C(=O)O)C(=O)O)C(C)C [Example 1, N^ε26-[(2S)-2-amino-6-[[(2S)-2-amino-6-[[(4S)-4-carboxy-4-[10-(4-carboxyphenoxy)decanoylamino]butanoyl]amino]hexanoyl]amino]hexanoyl], N^ε37-[(2S)-2-amino-6-[[(2S)-2-amino-6-[[(4S)-4-carboxy-4-[10-(4-carboxyphenoxy)decanoylamino]butanoyl]amino]hexanoyl]amino]hexanoyl]-[Aib^8, Arg^34,Lys^37]-GLP-1-(7-37)-peptide]	0.059	14
–	CC[C@H](C)[C@H](NC(=O)[C@H](Cc1ccccc1)NC(=O)[C@H](CCC(=O)O)NC(=O)[C@H](CCCCNC(=O)[C@@H](N)CCCCNC(=O)COCCOCCNC(=O)COCCOCCNC(=O)CC[C@H](NC(=O)CCCCCCCCCOc1ccc(C(=O)O)cc1)C(=O)O)NC(=O)[C@H](C)NC(=O)[C@H](C)NC(=O)[C@H](CCC(N)=O)NC(=O)CNC(=O)[C@H](CCC(=O)O)NC(=O)[C@H](CC(C)C)NC(=O)[C@H](Cc1ccc(O)cc1)NC(=O)[C@H](CO)NC(=O)[C@H](CO)NC(=O)[C@@H](NC(=O)[C@H](CC(=O)O)NC(=O)[C@H](CO)NC(=O)[C@@H](NC(=O)[C@H](Cc1ccccc1)NC(=O)[C@@H](NC(=O)CNC(=O)[C@H](CCC(=O)O)NC(=O)C(C)(C)NC(=O)[C@@H](N)Cc1c[nH]cn1)[C@@H](C)O)[C@@H](C)O)C(C)C)C(=O)N[C@@H](C)C(=O)N[C@@H](Cc1c[nH]c2ccccc12)C(=O)N[C@@H](CC(C)C)C(=O)N[C@H](C(=O)N[C@@H](CCCNC(=N)N)C(=O)NCC(=O)N[C@@H](CCCNC(=N)N)C(=O)N[C@@H](CCCCNC(=O)[C@@H](N)CCCCNC(=O)COCCOCCNC(=O)COCCOCCNC(=O)CC[C@H](NC(=O)CCCCCCCCCOc1ccc(C(=O)O)cc1)C(=O)O)C(=O)O)C(C)C [Example 5]	0.033	–
0.044	CC[C@H](C)[C@H](NC(=O)[C@H](Cc1ccccc1)NC(=O)[C@H](CCC(=O)O)NC(=O)[C@H](CCCCNC(=O)[C@@H](N)CCCCNC(=O)[C@@H](N)CCCCNC(=O)CC[C@H](NC(=O)CCCCCCCCCCCCC(=O)O)C(=O)O)NC(=O)[C@H](C)NC(=O)[C@H](C)NC(=O)[C@H](CCC(N)=O)NC(=O)CNC(=O)[C@H](CCC(=O)O)NC(=O)[C@H](CC(C)C)NC(=O)[C@H](Cc1ccc(O)cc1)NC(=O)[C@H](CO)NC(=O)[C@H](CO)NC(=O)[C@@H](NC(=O)[C@H](CC(=O)O)NC(=O)[C@H](CO)NC(=O)[C@@H](NC(=O)[C@H](Cc1ccccc1)NC(=O)[C@@H](NC(=O)CNC(=O)[C@H](CCC(=O)O)NC(=O)C(C)(C)NC(=O)[C@@H](N)Cc1c[nH]cn1)[C@@H](C)O)[C@@H](C)O)C(C)C)C(=O)N[C@@H](C)C(=O)N[C@@H](Cc1c[nH]c2ccccc12)C(=O)N[C@@H](CC(C)C)C(=O)N[C@H](C(=O)N[C@@H](CCCNC(=N)N)C(=O)NCC(=O)N[C@@H](CCCNC(=N)N)C(=O)N[C@@H](CCCCNC(=O)[C@@H](N)CCCCNC(=O)[C@@H](N)CCCCNC(=O)CC[C@H](NC(=O)CCCCCCCCCCCCC(=O)O)C(=O)O)C(=O)O)C(C)C [Example 2, N^ε26-[(2S)-2-amino-6-[[(2S)-2-amino-6-[[(4S)-4-carboxy-4-(13-carboxytridecanoylamino)butanoyl]amino]hexanoyl]amino]hexanoyl], N^ε37-[(2S)-2-amino-6-[[(2S)-2-amino-6-[[(4S)-4-carboxy-4-(13-carboxytridecanoylamino)butanoyl]amino]hexanoyl]amino]hexanoyl]-[Aib^8,Arg^34,Lys^37]-GLP-1-(7-37)-peptide]	–	–
7.25	CC[C@H](C)[C@H](NC(=O)[C@H](Cc1ccccc1)NC(=O)[C@H](CCC(=O)O)NC(=O)[C@H](CCCCNC(=O)[C@@H](N)CCCCNC(=O)COCCOCCNC(=O)COCCOCCNC(=O)CC[C@H](NC(=O)CCCCCCCCCCCCCCCCC(=O)O)C(=O)O)NC(=O)[C@H](C)NC(=O)[C@H](C)NC(=O)[C@H](CCC(N)=O)NC(=O)[C@H](CCC(=O)O)NC(=O)[C@H](CCC(=O)O)NC(=O)[C@H](CC(C)C)NC(=O)[C@H](Cc1ccc(O)cc1)NC(=O)[C@H](CO)NC(=O)[C@H](CO)NC(=O)[C@@H](NC(=O)[C@H](CC(=O)O)NC(=O)[C@H](CO)NC(=O)[C@@H](NC(=O)[C@H](Cc1ccccc1)NC(=O)[C@@H](NC(=O)CNC(=O)[C@H](CCC(=O)O)NC(=O)C(C)(C)NC(=O)[C@@H](N)Cc1c[nH]cn1)[C@@H](C)O)[C@@H](C)O)C(C)C)C(=O)N[C@@H](C)C(=O)N[C@@H](Cc1c[nH]c2ccccc12)C(=O)N[C@@H](CC(C)C)C(=O)N[C@H](C(=O)N[C@@H](CCC(N)=O)C(=O)NCC(=O)N[C@@H](CCCNC(=N)N)C(=O)N[C@@H](CCCCNC(=O)[C@@H](N)CCCCNC(=O)COCCOCCNC(=O)COCCOCCNC(=O)CC[C@H](NC(=O)CCCCCCCCCCCCCCCCC(=O)O)C(=O)O)C(=O)O)C(C)C [Example 28, N^ε26-[(2S)-2-amino-6-[[2-[2-[2-[[2-[2-[2-[[(4S)-4-carboxy-4-(17-carboxyheptadecanoylamino)butanoyl]amino]ethoxy]ethoxy]acetyl]amino]ethoxy]ethoxy]acetyl]amino]hexanoyl], N^ε37-[(2S)-2-amino-6-[[2-[2-[2-[[2-[2-[2-[[(4S)-4-carboxy-4-(17-carboxyheptadecanoylamino)butanoyl]amino]ethoxy]ethoxy]acetyl]amino]ethoxy]ethoxy]acetyl]amino]hexanoyl]-[Aib^8,Glu^22,Gln^34, Lys^37]-GLP-1-(7-37)-peptide] (H-H[Aib]EGTFTSDVSSYLEEQAAK([εLys-AEEA-AEEA-γGlu-C18 diacid])EFIAWLVQGRK([εLys-AEEA-AEEA-γGlu-C18 diacid])-OH; N-terminus and C-terminus assumed)	–	–
